The results in this text go back to patent US20240287078A1, “QUINAZOLINE DERIVATIVES USEFUL AS RAS INHIBITORS” (Redx Pharma PLC, priority 2021, published 2024).

Holding throughout (format): biochemical
In one experiment the target is T1, KRAS G12D (Homo sapiens, UniProt P01116, G12D).
T1 construct: aa1-188 KRAS WT, HRAS WT, NRAS WT, or KRAS containing the containing the G12D, G13D or Q61H amino acid substitutions
Briefly: HTRF nucleotide exchange assay (NEA), KRAS G12D. The note with it: recombinant human KRAS aa1-188 G12D, 2 nM; 60 min compound incubation, EDA-GTP-DY647P1. As for the experimental part:
(§1) HTRF Nucleotide Exchange Assay Method
(§2) The capacity of compounds to bind KRAS G12D, other KRAS mutants and wildtype RAS isoforms was quantified using a HTRF nucleotide exchange assay. Recombinant human RAS protein (2 nM; aa1-188 KRAS WT, HRAS WT, NRAS WT, or KRAS containing the containing the G12D, G13D or Q61H amino acid substitutions, or 4 nM KRAS; aa1-188 containing the G12V, G12C, G12A or G12S amino acid substitution, an N-terminal 6×His-tag and leader sequence), and 2 nM Europium-labeled anti-6×His antibody were mixed in assay buffer (10 mM HEPES pH7.3, 150 mM NaCl, 5 mM MgCl2, 0.05% BSA, 0.0025% NP-40 and 100 mM KF) with various concentrations of compound in a 384-well plate and a volume of 5 uL. After a 60-minute incubation at room temperature, Sul of 200 nM EDA-GTP-DY647P1 (diluted in assay buffer) was added to the plate. Following 30-minute incubation at room temperature, time-resolved fluorescence was measured on a PerkinElmer Envision plate reader. DMSO (0.3%) and unlabeled GDP (1 μM) or equivalent tool compound were used to generate the Max and Min assay signals, respectively. Data was analysed using a four-parameter logistic model to calculate IC50 values, with at least two independent replicates were performed for each compound.
(In general: In TR-FRET formats the signal depends on donor and acceptor labels being close together.)

In the next experiment the target is T2, KRAS WT (Homo sapiens, UniProt P01116).
T2 construct: aa1-188 KRAS WT, HRAS WT, NRAS WT
Briefly: HTRF nucleotide exchange assay (NEA), KRAS WT. The settings on record: recombinant human KRAS WT aa1-188, 2 nM; 60 min compound incubation, EDA-GTP-DY647P1. The method, then: as §1, §2

In a further experiment the target is T3, KRAS G12C (Homo sapiens, UniProt P01116, G12C).
T3 construct: 4 nM KRAS; aa1-188 containing the G12V, G12C, G12A or G12S amino acid substitution
Briefly: HTRF nucleotide exchange assay (NEA), KRAS G12C. The note with it: recombinant human KRAS aa1-188 G12C, 4 nM; 60 min compound incubation, EDA-GTP-DY647P1. As for the experimental part: as §1, §2

In the next experiment the target is T4, KRAS G12V (Homo sapiens, UniProt P01116, G12V).
T4 construct: 4 nM KRAS; aa1-188 containing the G12V, G12C, G12A or G12S amino acid substitution
Briefly: HTRF nucleotide exchange assay (NEA), KRAS G12V. The note with it: recombinant human KRAS aa1-188 G12V, 4 nM; 60 min compound incubation, EDA-GTP-DY647P1. As for the experimental part:
as §1, §2

A further experiment addresses T5, KRAS G12S (Homo sapiens, UniProt P01116, G12S).
T5 construct: 4 nM KRAS; aa1-188 containing the G12V, G12C, G12A or G12S amino acid substitution
Briefly: HTRF nucleotide exchange assay (NEA), KRAS G12S. The settings on record: recombinant human KRAS aa1-188 G12S, 4 nM; 60 min compound incubation, EDA-GTP-DY647P1. As for the experimental part: as §1, §2

A further experiment concerns the target T6, KRAS G12A (Homo sapiens, UniProt P01116, G12A).
T6 construct: 4 nM KRAS; aa1-188 containing the G12V, G12C, G12A or G12S amino acid substitution
Briefly: HTRF nucleotide exchange assay (NEA), KRAS G12A. The note with it: recombinant human KRAS aa1-188 G12A, 4 nM; 60 min compound incubation, EDA-GTP-DY647P1. The method, then: as §1, §2

The next experiment deals with T7, KRAS G13D (Homo sapiens, UniProt P01116, G13D).
T7 construct: aa1-188 KRAS WT, HRAS WT, NRAS WT, or KRAS containing the containing the G12D, G13D or Q61H amino acid substitutions
Briefly: HTRF nucleotide exchange assay (NEA), KRAS G13D. The note with it: recombinant human KRAS aa1-188 G13D, 2 nM, 60 min compound incubation, EDA-GTP-DY647P1; for inhibition at 10 µM: 1 h. As for the experimental part:
as §1
The capacity of compounds to bind KRAS G12D, other KRAS mutants and wildtype RAS isoforms was quantified using a HTRF nucleotide exchange assay. […] After a 60-minute incubation at room temperature, Sul of 200 nM EDA-GTP-DY647P1 (diluted in assay buffer) was added to the plate. Following 30-minute incubation at room temperature, time-resolved fluorescence was measured on a PerkinElmer Envision plate reader. DMSO (0.3%) and unlabeled GDP (1 μM) or equivalent tool compound were used to generate the Max and Min assay signals, respectively. Data was analysed using a four-parameter logistic model to calculate IC50 values, with at least two independent replicates were performed for each compound.

In a further experiment the target is T8, KRAS Q61H (Homo sapiens, UniProt P01116, Q61H).
T8 construct: aa1-188 KRAS WT, HRAS WT, NRAS WT, or KRAS containing the containing the G12D, G13D or Q61H amino acid substitutions
Briefly: HTRF nucleotide exchange assay (NEA), KRAS Q61H. The note with it: recombinant human KRAS aa1-188 Q61H, 2 nM; 60 min compound incubation, EDA-GTP-DY647P1. The method, then:
as §1, §2

Bounds are passed on as bounds.

T8 sequence (P01116 1-188 isoform P01116-2 Q61H): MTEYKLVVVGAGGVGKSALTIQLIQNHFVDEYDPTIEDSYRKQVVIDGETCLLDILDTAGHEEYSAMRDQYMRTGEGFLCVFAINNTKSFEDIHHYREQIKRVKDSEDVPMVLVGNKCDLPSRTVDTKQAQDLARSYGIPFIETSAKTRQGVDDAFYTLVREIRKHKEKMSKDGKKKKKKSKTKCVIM
T6 sequence (P01116 1-188 isoform P01116-2 G12A): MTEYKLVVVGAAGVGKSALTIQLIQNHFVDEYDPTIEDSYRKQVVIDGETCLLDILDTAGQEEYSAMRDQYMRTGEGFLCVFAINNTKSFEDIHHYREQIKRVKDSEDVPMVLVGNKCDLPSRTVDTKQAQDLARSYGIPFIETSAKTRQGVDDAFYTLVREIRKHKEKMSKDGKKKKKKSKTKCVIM
T4 sequence (P01116 1-188 isoform P01116-2 G12V): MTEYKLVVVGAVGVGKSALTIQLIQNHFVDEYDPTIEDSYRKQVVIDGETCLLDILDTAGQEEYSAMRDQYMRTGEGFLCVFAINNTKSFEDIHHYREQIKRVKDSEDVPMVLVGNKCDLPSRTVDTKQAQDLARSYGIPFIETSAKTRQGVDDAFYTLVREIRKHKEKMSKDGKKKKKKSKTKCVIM
T5 sequence (P01116 1-188 isoform P01116-2 G12S): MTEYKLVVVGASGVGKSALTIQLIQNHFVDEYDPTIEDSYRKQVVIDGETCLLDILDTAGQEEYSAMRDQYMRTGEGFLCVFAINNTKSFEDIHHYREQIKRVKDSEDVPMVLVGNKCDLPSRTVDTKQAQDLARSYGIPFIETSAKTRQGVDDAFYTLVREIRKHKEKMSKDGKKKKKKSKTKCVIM
T3 sequence (P01116 1-188 isoform P01116-2 G12C): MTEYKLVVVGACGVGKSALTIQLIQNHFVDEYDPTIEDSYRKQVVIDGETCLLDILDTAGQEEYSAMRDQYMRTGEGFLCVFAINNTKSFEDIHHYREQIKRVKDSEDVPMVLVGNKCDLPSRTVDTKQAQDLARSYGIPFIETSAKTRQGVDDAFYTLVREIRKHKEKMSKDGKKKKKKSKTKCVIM
T7 sequence (P01116 1-188 isoform P01116-2 G13D): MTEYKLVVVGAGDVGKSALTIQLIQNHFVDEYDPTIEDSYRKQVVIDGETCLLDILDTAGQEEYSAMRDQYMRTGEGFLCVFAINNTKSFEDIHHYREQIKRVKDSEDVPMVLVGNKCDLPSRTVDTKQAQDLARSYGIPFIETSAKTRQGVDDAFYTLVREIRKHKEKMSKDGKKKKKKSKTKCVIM
T1 sequence (P01116 1-188 isoform P01116-2 G12D): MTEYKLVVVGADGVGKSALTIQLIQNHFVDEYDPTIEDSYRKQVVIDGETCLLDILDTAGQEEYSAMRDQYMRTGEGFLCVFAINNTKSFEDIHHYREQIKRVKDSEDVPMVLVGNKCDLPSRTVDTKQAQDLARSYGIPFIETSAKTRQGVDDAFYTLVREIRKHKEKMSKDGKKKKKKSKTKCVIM
T2 sequence (P01116 1-188 isoform P01116-2): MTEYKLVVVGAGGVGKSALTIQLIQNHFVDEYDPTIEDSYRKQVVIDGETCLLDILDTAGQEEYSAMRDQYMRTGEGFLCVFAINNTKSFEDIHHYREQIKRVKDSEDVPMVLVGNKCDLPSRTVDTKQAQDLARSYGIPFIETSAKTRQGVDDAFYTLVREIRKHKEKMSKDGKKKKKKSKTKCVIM

`Oc1cc(-c2ccc3c(N4CCCOCC4)nc(OCC45CCCN4CCC5)nc3c2F)c2ccccc2c1` [Example 25, 4-[8-fluoro-2-(1,2,3,5,6,7-hexahydropyrrolizin-8-ylmethoxy)-4-(1,4-oxazepan-4-yl)quinazolin-7-yl]naphthalen-2-ol]: the 50% inhibitory concentration (IC50) on KRAS G12D is 10 to 100 nM; on KRAS WT, 10 to 100 nM; on KRAS G12C, 10 to 100 nM; on KRAS G12V it was 10 to 100 nM; at KRAS G12S, 100 to 10000 nM; on KRAS G12A it was 10 to 100 nM. Moreover, the IC50 on KRAS Q61H was 100 to 10000 nM. Further, the inhibition at 10 µM at KRAS G13D is 10 to 49%.

In the case of `N#Cc1cc2c(N3CCCOCC3)nc(OCC34CCCN3CCC4)nc2c(F)c1-c1cc(O)cc2ccccc12` [Example 27, 8-fluoro-2-(1,2,3,5,6,7-hexahydropyrrolizin-8-ylmethoxy)-7-(3-hydroxy-1-naphthyl)-4-(1,4-oxazepan-4-yl)quinazoline-6-carbonitrile], the IC50 lay in the range of 10 to 100 nM on KRAS G12D; 10 to 100 nM at KRAS WT; 10 to 100 nM on KRAS G12C; 10 to 100 nM at KRAS G12V; 100 to 10000 nM at KRAS G12S; 100 to 10000 nM at KRAS G12A.

As to `Cc1c(-c2cccc3sc(N)c(C#N)c23)ccc2c(N3CCCOCC3)nc(OCC34CCCN3CCC4)nc12` [Example 22, 2-amino-4-[2-(1,2,3,5,6,7-hexahydropyrrolizin-8-ylmethoxy)-8-methyl-4-(1,4-oxazepan-4-yl)quinazolin-7-yl]benzothiophene-3-carbonitrile], the IC50 on KRAS G12D is 10 to 100 nM; on KRAS WT, 10 to 100 nM; at KRAS G12C, < 10 nM; at KRAS G12V, < 10 nM; on KRAS G12S, 100 to 10000 nM; on KRAS G12A, 10 to 100 nM. The IC50 at KRAS Q61H fell in the range of 10 to 100 nM.

On to `C#Cc1c(F)ccc2cc(O)cc(-c3ccc4c(N5CCCOCC5)nc(OC[C@@]56CCCN5C[C@H](F)C6)nc4c3F)c12` (racemic) [Example 26, 5-ethynyl-6-fluoro-4-[8-fluoro-4-(1,4-oxazepan-4-yl)-2-[[rac-(2R,8S)-2-fluoro-1,2,3,5,6,7-hexahydropyrrolizin-8-yl]methoxy]quinazolin-7-yl]naphthalen-2-ol], for which the IC50 at KRAS G12D, on KRAS WT, at KRAS G12C, on KRAS G12V, on KRAS G12S and at KRAS G12A was < 10 nM each time.

As to `C#Cc1c(F)ccc2cc(O)cc(-c3ccc4c(N5CCCNC(=O)C5)nc(OC[C@@]56CCCN5C[C@H](F)C6)nc4c3C)c12` (racemic) [Example 24, 4-[7-(8-ethynyl-7-fluoro-3-hydroxy-1-naphthyl)-2-[[rac-(2R,8S)-2-fluoro-1,2,3,5,6,7-hexahydropyrrolizin-8-yl]methoxy]-8-methyl-quinazolin-4-yl]-1,4-diazepan-2-one], the IC50 is < 10 nM on KRAS G12D; < 10 nM on KRAS WT; < 10 nM on KRAS G12C; < 10 nM at KRAS G12V; 10 to 100 nM on KRAS G12S; < 10 nM at KRAS G12A. Further, at KRAS Q61H, the IC50 fell in the range of 10 to 100 nM.

With `Cc1c(-c2cc(O)cc3ccccc23)ccc2c(N3CCSCC3)nc(OCC34CCCN3CCC4)nc12` [Example 3, 4-[2-(1,2,3,5,6,7-hexahydropyrrolizin-8-ylmethoxy)-8-methyl-4-thiomorpholino-quinazolin-7-yl]naphthalen-2-ol], the IC50 on KRAS G12D, at KRAS WT, at KRAS G12C and on KRAS G13D was 100 to 10000 nM each time.

As for `Cc1c(-c2cc(O)cc3ccccc23)ccc2c(N3CCCOCC3)nc(OCC34CCCN3CCC4)nc12` [Example 2, 4-[2-(1,2,3,5,6,7-hexahydropyrrolizin-8-ylmethoxy)-8-methyl-4-(1,4-oxazepan-4-yl)quinazolin-7-yl]naphthalen-2-ol], the IC50 on KRAS G12D, at KRAS WT, on KRAS G12C, at KRAS G12V and at KRAS Q61H was 100 to 10000 nM throughout. The inhibition at 10 µM on KRAS G13D lay within 10 to 49%.

`C#Cc1c(F)ccc2cc(O)cc(-c3ccc4c(N5CCCOCC5)nc(OC[C@@]56CCCN5C[C@H](F)C6)nc4c3C)c12` (racemic) [Example 6, rac-5-ethynyl-6-fluoro-4-[2-[[(2R,8S)-2-fluoro-1,2,3,5,6,7-hexahydropyrrolizin-8-yl]methoxy]-8-methyl-4-(1,4-oxazepan-4-yl)quinazolin-7-yl]naphthalen-2-ol]: the IC50 on KRAS G12D, on KRAS WT, at KRAS G12C, on KRAS G12V, at KRAS G12S and at KRAS G12A was < 10 nM in each case. In addition, at KRAS Q61H, the IC50 was < 10 nM. Besides, on KRAS G13D, the inhibition at 10 µM lay in the range of 10 to 49%.

By IC50 is commonly meant the midpoint of a concentration-inhibition curve. As a reminder, the inhibition is how much of the control response was suppressed.
